These results are taken from ChEMBL document CHEMBL4359847, “Novel N-aryl nicotinamide derivatives: Taking stock on 3,6-diazabicyclo[3.1.1]heptanes as ligands for neuronal acetylcholine receptors” (Eur J Med Chem, 2019).

Structures are written as SMILES. pEC50, pKi: −log10 of the molar value. Active and inactive are the calls of the source. The rule behind the calls is not given here.

One may read the pKi as the Ki on a negative log10 scale, so that one unit is a factor of ten. A higher pKi goes with a low Ki. The pEC50 is the negative decadic logarithm of the EC50, by convention in mol/L.

In experiment [1] the target is T1, Neuronal acetylcholine receptor; alpha4/beta2 (Rattus norvegicus, UniProt P09483+P12390). The experiment is described as follows: Displacement of [3H]epibatidine from alpha4beta2 nAChR in rat cerebral cortex membrane. The experiment is classed as cell membranes. (In general: In a radioligand displacement assay an active substance lowers the binding of a labelled ligand.)
T1 sequence (P09483 whole entry): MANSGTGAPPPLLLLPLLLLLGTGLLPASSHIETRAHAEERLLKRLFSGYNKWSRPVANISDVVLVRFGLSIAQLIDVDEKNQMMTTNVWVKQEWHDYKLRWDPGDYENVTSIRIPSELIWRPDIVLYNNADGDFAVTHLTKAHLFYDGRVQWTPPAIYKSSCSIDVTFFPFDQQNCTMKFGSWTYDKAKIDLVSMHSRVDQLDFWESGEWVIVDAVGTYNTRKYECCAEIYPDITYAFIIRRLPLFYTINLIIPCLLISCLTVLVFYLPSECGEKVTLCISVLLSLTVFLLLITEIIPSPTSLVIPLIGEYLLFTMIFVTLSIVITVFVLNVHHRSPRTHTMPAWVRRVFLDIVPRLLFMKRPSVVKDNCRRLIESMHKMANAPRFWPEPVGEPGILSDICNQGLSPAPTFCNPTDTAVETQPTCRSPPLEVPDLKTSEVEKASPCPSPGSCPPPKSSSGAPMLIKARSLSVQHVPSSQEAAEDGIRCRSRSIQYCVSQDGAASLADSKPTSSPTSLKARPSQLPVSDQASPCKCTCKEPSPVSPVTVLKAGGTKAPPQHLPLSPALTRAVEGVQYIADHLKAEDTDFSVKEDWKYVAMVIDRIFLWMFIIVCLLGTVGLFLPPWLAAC
T1 sequence (P12390 whole entry): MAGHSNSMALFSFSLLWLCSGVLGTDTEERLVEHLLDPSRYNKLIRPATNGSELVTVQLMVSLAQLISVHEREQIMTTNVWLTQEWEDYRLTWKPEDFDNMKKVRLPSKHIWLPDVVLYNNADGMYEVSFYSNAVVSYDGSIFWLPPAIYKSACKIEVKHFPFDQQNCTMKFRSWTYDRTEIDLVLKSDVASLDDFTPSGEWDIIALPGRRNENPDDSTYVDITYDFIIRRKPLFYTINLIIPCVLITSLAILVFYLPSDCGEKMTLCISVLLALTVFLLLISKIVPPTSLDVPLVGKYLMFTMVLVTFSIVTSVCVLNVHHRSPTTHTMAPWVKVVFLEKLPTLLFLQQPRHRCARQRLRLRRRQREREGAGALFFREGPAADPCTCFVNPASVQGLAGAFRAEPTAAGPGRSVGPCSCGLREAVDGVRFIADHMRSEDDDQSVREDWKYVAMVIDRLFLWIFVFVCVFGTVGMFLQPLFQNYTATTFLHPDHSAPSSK

Experiment [2] concerns the target Neuronal acetylcholine receptor subunit alpha-7 (Rattus norvegicus, UniProt Q05941). The experiment is described as follows: Displacement of [125I]alpha-bungarotoxin from alpha7nAChR in rat hippocampus membrane. The experiment is classed as cell membranes.
The species entered for a further experiment is Rattus norvegicus. The experiment is described as follows: Selectivity index, ratio of Ki for alpha7 nAChR in rat hippocampus membrane to Ki for alpha4beta2 nAChR in rat cerebral cortex membrane. The experiment is classed as cell membranes.
Experiment [3] concerns the target T2, Neuronal acetylcholine receptor; alpha3/beta4 (Homo sapiens, UniProt P30926+P32297). The experiment is described as follows: Displacement of [3H]epibatidine from human alpha3beta4 nAChR transfected in […] cell membrane. The experiment is classed as cell membranes.
Experiment [4] can be described thus: Selectivity index, ratio of Ki for human alpha3beta4 nAChR in […] cell membrane to Ki for alpha4beta2 nAChR in rat cerebral cortex membrane. The experiment is classed as cell-based.
Experiment [5] addresses T3, Neuronal acetylcholine receptor; alpha4/beta2 (Homo sapiens, UniProt P17787+P43681). The experiment is described as follows: Agonist activity at human alpha4beta2 nAChR expressed in GH4C1 cells assessed as increase in inward channel current measured after 3 to 4 days at -70 mV holding potential by patch clamp assay relative to acetylcholine. The experiment is classed as cell-based. On the technique in general: In patch-clamp work, channel activity is measured electrically.

Experiment [6] has as its target T3, Neuronal acetylcholine receptor; alpha4/beta2. The experiment is described as follows: Agonist activity at human alpha4beta2 nAChR expressed in GH4C1 cells assessed as increase in inward channel current measured after 3 to 4 days at -70 mV holding potential by patch clamp assay. The experiment is classed as cell-based.
The target of experiment [7] is T2, Neuronal acetylcholine receptor; alpha3/beta4. The experiment is described as follows: Agonist activity at human alpha3beta4 nAChR expressed in GH4C1 cells assessed as increase in inward channel current at >1 uM measured after 3 to 4 days at -70 mV holding potential by patch clamp assay. The experiment is classed as cell-based.
Experiment [8] has the same target. The experiment is described as follows: Agonist activity at human alpha3beta4 nAChR expressed in GH4C1 cells assessed as increase in inward channel current measured after 3 to 4 days at -70 mV holding potential by patch clamp assay. The experiment is classed as cell-based.
Experiment [9] has as its target T1, Neuronal acetylcholine receptor; alpha4/beta2. The experiment is described as follows: Displacement of [3H]cytisine from alpha4beta2 nAChR in rat brain cerebral cortex membrane incubated for 75 mins by scintillation counting method. The experiment is classed as cell membranes.
The target of experiment [10] is T2, Neuronal acetylcholine receptor; alpha3/beta4. The experiment is described as follows: Agonist activity at human alpha3beta4 nAChR expressed in GH4C1 cells assessed as inward channel current at 0.01 to 100 uM measured after 3 to 4 days at -70 mV holding potential by patch clamp assay. The experiment is classed as cell-based.

T2 sequence (P30926 whole entry): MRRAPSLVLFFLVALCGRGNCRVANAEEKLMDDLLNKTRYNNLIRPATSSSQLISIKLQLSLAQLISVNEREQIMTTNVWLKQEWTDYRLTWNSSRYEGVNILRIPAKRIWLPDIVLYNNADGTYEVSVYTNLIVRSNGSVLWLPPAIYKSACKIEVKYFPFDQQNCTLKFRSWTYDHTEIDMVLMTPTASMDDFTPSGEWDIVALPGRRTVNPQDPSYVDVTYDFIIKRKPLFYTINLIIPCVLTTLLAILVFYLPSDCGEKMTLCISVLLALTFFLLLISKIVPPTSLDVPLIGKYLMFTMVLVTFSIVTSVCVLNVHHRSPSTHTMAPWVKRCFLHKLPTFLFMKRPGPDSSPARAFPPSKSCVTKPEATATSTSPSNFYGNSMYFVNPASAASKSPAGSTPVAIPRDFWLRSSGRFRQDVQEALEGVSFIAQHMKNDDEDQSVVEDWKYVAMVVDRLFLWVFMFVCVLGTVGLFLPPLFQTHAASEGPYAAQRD
T2 sequence (P32297 whole entry): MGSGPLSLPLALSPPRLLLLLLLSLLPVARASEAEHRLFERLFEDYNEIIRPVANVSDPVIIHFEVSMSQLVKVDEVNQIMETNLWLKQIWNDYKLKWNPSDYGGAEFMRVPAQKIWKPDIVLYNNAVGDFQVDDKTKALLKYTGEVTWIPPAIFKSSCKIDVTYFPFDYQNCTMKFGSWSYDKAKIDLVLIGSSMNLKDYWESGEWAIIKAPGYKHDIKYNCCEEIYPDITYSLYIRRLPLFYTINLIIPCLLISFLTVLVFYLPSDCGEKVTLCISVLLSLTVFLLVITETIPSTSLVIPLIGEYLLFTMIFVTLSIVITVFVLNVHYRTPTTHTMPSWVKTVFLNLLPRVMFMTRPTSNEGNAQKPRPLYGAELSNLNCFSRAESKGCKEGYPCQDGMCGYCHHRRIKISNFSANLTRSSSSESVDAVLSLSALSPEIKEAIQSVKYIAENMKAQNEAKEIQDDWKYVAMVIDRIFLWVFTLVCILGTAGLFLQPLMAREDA
T3 sequence (P17787 whole entry): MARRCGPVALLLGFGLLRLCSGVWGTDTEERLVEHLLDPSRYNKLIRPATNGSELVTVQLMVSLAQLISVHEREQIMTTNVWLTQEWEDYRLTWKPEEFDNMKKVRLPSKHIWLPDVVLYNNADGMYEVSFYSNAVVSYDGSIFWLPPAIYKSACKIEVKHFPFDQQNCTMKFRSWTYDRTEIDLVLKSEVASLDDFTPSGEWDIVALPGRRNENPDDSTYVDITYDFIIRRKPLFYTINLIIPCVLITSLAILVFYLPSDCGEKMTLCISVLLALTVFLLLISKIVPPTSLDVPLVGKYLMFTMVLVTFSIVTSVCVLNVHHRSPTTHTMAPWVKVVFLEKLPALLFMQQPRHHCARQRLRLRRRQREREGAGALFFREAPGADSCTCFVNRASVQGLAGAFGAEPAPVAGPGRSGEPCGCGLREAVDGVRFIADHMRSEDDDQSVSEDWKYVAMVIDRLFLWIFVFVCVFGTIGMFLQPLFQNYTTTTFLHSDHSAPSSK
T3 sequence (P43681 whole entry): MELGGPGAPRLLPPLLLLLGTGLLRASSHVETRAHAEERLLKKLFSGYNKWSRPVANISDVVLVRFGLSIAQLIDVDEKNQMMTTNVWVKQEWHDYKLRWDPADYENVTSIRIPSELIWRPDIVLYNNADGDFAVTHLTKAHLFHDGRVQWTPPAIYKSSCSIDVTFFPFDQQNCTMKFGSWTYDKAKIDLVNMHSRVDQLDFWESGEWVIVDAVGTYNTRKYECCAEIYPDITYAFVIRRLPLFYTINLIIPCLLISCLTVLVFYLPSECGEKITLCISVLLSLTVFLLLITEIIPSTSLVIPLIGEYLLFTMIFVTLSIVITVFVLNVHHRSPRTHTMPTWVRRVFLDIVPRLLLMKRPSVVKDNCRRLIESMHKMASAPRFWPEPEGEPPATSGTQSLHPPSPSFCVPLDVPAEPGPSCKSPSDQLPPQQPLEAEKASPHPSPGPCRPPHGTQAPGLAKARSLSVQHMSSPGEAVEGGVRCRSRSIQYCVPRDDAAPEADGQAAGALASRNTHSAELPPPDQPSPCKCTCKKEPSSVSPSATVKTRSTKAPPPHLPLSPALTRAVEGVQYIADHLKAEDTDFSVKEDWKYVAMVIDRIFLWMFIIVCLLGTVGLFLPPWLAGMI
Sequence of Neuronal acetylcholine receptor subunit alpha-7 (Q05941 whole entry): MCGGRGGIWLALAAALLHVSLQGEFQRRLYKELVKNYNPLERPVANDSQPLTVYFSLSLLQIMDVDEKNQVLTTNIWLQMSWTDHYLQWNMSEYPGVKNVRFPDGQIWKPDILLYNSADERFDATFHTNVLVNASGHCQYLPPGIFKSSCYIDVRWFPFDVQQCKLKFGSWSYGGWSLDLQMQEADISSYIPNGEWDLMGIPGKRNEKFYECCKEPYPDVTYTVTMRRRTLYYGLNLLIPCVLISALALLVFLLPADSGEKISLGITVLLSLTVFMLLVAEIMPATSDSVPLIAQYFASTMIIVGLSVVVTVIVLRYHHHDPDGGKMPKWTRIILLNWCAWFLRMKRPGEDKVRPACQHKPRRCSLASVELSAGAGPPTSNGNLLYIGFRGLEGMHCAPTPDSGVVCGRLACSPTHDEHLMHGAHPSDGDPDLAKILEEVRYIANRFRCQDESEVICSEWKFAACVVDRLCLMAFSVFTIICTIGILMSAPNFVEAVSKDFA

On to `O=C(c1cncc(N2CC3CC(C2)N3)c1)N1CCc2ccccc2C1`, for which the pKi in [1] is 10.51; in experiment [2], 6.00; in [3] it was 7.68. For the same compound, the Ratio Ki came to 32300 in the experiment listed under Rattus norvegicus and 677 in experiment [4].
On the same counts, the results for `O=C(Nc1ccccc1)c1cncc(N2CC3CC(C2)N3)c1` are 8.96, 5.62, 6.72, 2180 and 174.
Taken in the same sequence, the figures for `O=C(NCc1ccccc1)c1cncc(N2CC3CC(C2)N3)c1` were 8.74, 5.97, 5.80, 594 and 889.
Regarding `COc1cccc(NC(=O)c2cncc(N3CC4CC(C3)N4)c2)c1`, the pKi is 9.25 in experiment [1], below 4.30 in experiment [2] and 6.58 in [3]. Also, the Ratio Ki in the experiment listed under Rattus norvegicus was above 89300; in [4], 473. In experiment [5], the Imax came out at 38%. In addition, the results for the pEC50 in experiment [6] and in experiment [8] were 6.22 and below 5.00, respectively. In experiment [7], the result was Active.
For the compound `O=C(Nc1ccccc1F)c1cncc(N2CC3CC(C2)N3)c1`, the pKi in experiment [1] is 9.50; in experiment [2], 5.47; in experiment [3] it was 6.99. Moreover, the Ratio Ki in the experiment listed under Rattus norvegicus stood at 10800; in [4] it was 324.
Consider `O=C(Nc1ccc(Cl)cc1)c1cncc(N2CC3CC(C2)N3)c1`, for which the pKi in [1] is 9.39; in experiment [2], 4.89; in experiment [3], 6.91. Besides, the Ratio Ki in the experiment filed under Rattus norvegicus turned out to be 32200; in experiment [4], 304.
`Clc1ccc(N2CC3CCC(C2)N3)cn1`: the pKi in experiment [9] is 9.02.
In the case of `O=C(c1cncc(N2CC3CC(C2)N3)c1)N1CCCc2ccccc21`, the pKi in experiment [1] is 9.71; in experiment [2], below 4.30; in experiment [3] it was 7.21. Besides, the results for the Ratio Ki (in the experiment listed under Rattus norvegicus; in [4]) were above 255000 and 316, respectively.
As to `O=C(Nc1cccc(Cl)c1)c1cncc(N2CC3CC(C2)N3)c1`, the negative-log Ki (pKi) in experiment [1] was 10.38; in [2] it was 4.64; in experiment [3], 7.23. Also, the Ratio Ki in the experiment filed under Rattus norvegicus stood at 545000; in [4], 1400. For the same compound, the Imax in experiment [5] was 37%. In experiment [6], the pEC50 is 6.00. Further, in [10], the outcome was inactive.
In the case of `COc1ccc(NC(=O)c2cncc(N3CC4CC(C3)N4)c2)cc1OC`, the pKi in [1] is 9.08; in [2] it was 5.64; in experiment [3] it was 6.29. The results for the Ratio Ki (in the experiment listed under Rattus norvegicus; in [4]) were 2780 and 623, respectively.
`O=C(Nc1ccc(F)cc1)c1cncc(N2CC3CC(C2)N3)c1`: the pKi in experiment [1] is 11.00; in [2], 4.48; in experiment [3] it was 7.09. The Ratio Ki in the experiment filed under Rattus norvegicus amounted to 3.32e+06; in experiment [4], 8100. Moreover, the Imax in experiment [5] worked out at 41%. Also, the pEC50 in experiment [6] was 6.28; in experiment [8], below 5.00. In addition, the result in experiment [7] was Active.
On to `COc1cc(NC(=O)c2cncc(N3CC4CC(C3)N4)c2)cc(OC)c1`, for which the negative logarithm of the Ki (pKi) was 9.01 in [1], 4.37 in experiment [2] and 5.70 in experiment [3]. Moreover, the values for the Ratio Ki (in the experiment listed under Rattus norvegicus; in experiment [4]) were 43800 and 2030, respectively.
Turning to `O=C(Nc1cccc(F)c1)c1cncc(N2CC3CC(C2)N3)c1`, the pKi in experiment [1] was 10.36; in experiment [2] it was 4.55; in experiment [3], 7.55. Besides, the Ratio Ki in the experiment listed under Rattus norvegicus amounted to 634000; in [4], 636.
On the same counts, the results for `O=C(Nc1ccc(F)cc1F)c1cncc(N2CC3CC(C2)N3)c1` are 10.29, below 4.30, 7.30, above 980000 and 980.
On the same counts, the results for `O=C(Nc1ccc(I)cc1)c1cncc(N2CC3CC(C2)N3)c1` are 9.44, 4.63, 6.99, 63900 and 281.
On the same counts, the results for `CCc1cccc(NC(=O)c2cncc(N3CC4CC(C3)N4)c2)c1` are 8.89, below 4.30, 6.51, above 38500 and 235.
As to `O=C(Nc1ccc2c(c1)OCO2)c1cncc(N2CC3CC(C2)N3)c1`, the pKi in experiment [1] was 9.97; in [2] it was 5.08; in experiment [3] it was 6.95. For the same compound, the results for the Ratio Ki (in the experiment filed under Rattus norvegicus; in [4]) were 79200 and 1070, respectively.
